{
  "source": "paper PMC7099596",
  "about": "(ACS Central Science, 2020)",
  "origin": "cited, not measured here",
  "key": {"[1]": {"test_system": "MCF-7 breast cancer cell line", "conditions": "read-out: EC50 antiproliferative activity, MCF-7, ref NCI ID: 122750"}, "[2]": {"test_system": "SKBr-3 breast cancer cell line", "conditions": "read-out: EC50 antiproliferative activity, SKBr-3, ref NCI ID: 122750"}},
  "data": [
    {"smiles": "COC1=C2C[C@@H](C)C[C@H](OC)[C@H](O)[C@@H](C)/C=C(\\C)[C@H](OC(N)=O)[C@@H](OC)/C=C\\C=C(/C)C(=O)NC(=CC1=O)C2=O", "note": "[geldanamycin]", "values": [
      {"measurement": "EC50", "setting": "[1]", "result": 19.9, "unit": "nM"},
      {"measurement": "EC50", "setting": "[2]", "result": 24, "unit": "nM"}
    ]}
  ]
}
